According to patent US20030181426A1, “Compositions and methods for treating pain using cyclooxygenase-1 inhibitors” (priority 2002, published 2003):
Entries after “also recorded” stand apart in the source; their conditions may differ. Like-named read-outs stand apart in the source and are kept apart here.

Legend:
COX-1 and COX-2 = settings: as known in the art / Warner, 1999; cited from earlier work
[1] = system: acetic acid-induced writhing response; settings: mice; COX-1 sensitive pain models; Ochi et al. 2000; cited from earlier work
inflammation = settings: rat animal model; compared to indomethancin; Mansferrer et al. 1994; cited from earlier work
tactile allodynia [2] = assay: Partial sciatic nerve ligation (PSNL) tactile allodynia, i.t. COX inhibitors; format: in vivo, Sprague-Dawley rats
Description: A Sprague-Dawley rats (Harlan Industries, Indianapolis, Ind., USA), weighing 200-250 g, were used in this study. All animal surgical procedures were in conformity with the Wake Forest University guidelines on the ethical use of animals and studies were approved by the Animal Care and Use Committee. Animals were implanted with intrathecal catheters according to the method described previously. (Yaksh TL, 1976). Briefly, under halothane anesthesia (2-4% in oxygen/air), animals were placed prone in a stereotaxic frame and a small incision was made at the back of the neck. A small puncture was made in the atlanto-occipital membrane of the cistema magna and a polyethylene catheter (PE-10, 7.5 cm) was inserted so that the caudal tip reached the lumbar enlargement of the spinal cord. The rostral end of the catheter was exteriorized at the top of the head and the wound was closed with sutures. Animals were allowed 4-5 days to recover from the surgery and those displaying signs of motor dysfunction (fore limb or hind limb paralysis) were excluded from the study. Rats were anesthetized with 2-4% halothane in oxygen-air. For partial […] nerve ligation (PSNL), the left sciatic nerve was exposed at the high thigh level and one-third to one-half of the nerve was ligated with silk suture (size 6) as previously described (Shir et al., 1991). Animals were maintained after surgery with ad libitum food and water on a 12-h light/dark cycle. All rats were allowed to recover for 4 weeks after PSNL. By then, tactile allodynia was well established in the ipsilateral hindpaw.

noxious heat = assay: Latency to paw withdrawal from noxious heat; format: in vivo, male Sprague-Dawley rats; settings: drug alone; rats with intrathecal catheter
Protocol: After Animal Care and Use Committee approval, adult male Sprague-Dawley rats (240-330 g; Harlan, Indianapolis, Ind.) were anesthetized with halothane. A catheter was inserted, as previously described, through a small nick in the cisterna magnum membrane into the intrathecal space and advanced 7.5 cm such that its tip lay in the lumbar intrathecal space. […] After catheter implantation, rats were housed individually with a 12 h/12 h light/dark cycle and an unlimited supply of water and food. Experiments occurred at least 6 days after surgery.

tactile allodynia [3] = assay: PSNL tactile allodynia, lidocaine; format: in vivo, male Sprague-Dawley rats
[4] = rat, in vivo, ip
tactile allodynia [5] = assay: L5 and L6 spinal nerve ligation (SNL) tactile allodynia, lidocaine and ketorolac; format: in vivo, male Sprague-Dawley rats
[6] = Hind limb weakness or paralysis after lidocaine injection
[7] = system: locomotor activity after laparotomy; assay: Post-laparotomy locomotor activity model; format: in vivo, rats
nociceptive responses [8] = settings: mice with paw inflammation; Mazario et al. 2001; cited from earlier work
nociceptive responses [9] = settings: normal and monoarthritic rats; Mazario et al. 2001; cited from earlier work
[10] = 300 μg intrathecal, 3 days after injection
[11] = IV 3 mg/kg, 24 hr after laparotomy, 3 mg/kg

## COc1ccc2cc(CC(=O)O)ccc2c1 [6-methoxy-2-napthyl acetic acid]
COX-1 and COX-2
  preference in inhibition of COX-1 and COX-2: preferentially inhibit COX-2

## COc1ccc(-c2nc(C(=O)N3CCN(C)CC3)sc2-c2ccc(OC)cc2)cc1 [FR122047]
[1]
  analgesic effect against acetic acid-induced writhing response: dose-dependent analgesic effect

## CS(=O)(=O)Nc1ccc([N+](=O)[O-])cc1OC1CCCCC1 [NS-398]
inflammation
  anti-inflammatory and ulcerogenic effect: anti-inflammatory but not ulcerogenic
[1]
  analgesic effect against acetic acid-induced writhing response: had no effect
Tactile allodynia [2]; 2 and 4 h after injection
  withdrawal threshold, ipsilateral hindpaw: reversed to pre-lesion baseline level
Tactile allodynia [2]; 4 weeks after PSNL
  duration of reversal of withdrawal threshold: 24 h
Tactile allodynia [2]; 48 h post-injection
  withdrawal threshold, ipsilateral hindpaw: returned to pre-injection level

## Clc1cccc(Cl)c1N=C1NCCN1 [clonidine]
Noxious heat
  antinociception (latency to paw withdrawal from noxious heat): produced antinociception

## CC(C(=O)O)c1ccc(-c2ccccc2)c(F)c1 (stereo not shown) [flubiprofen]
COX-1 and COX-2
  preference in inhibition of COX-1 and COX-2: preferentially inhibit COX-1

## CC(C)Cc1ccc(C(C)C(=O)O)cc1 (stereo not shown) [ibuprofen]
COX-1 and COX-2
  preference in inhibition of COX-1 and COX-2: no or small preferences in inhibition of COX-1 and COX-2

## COc1ccc2c(c1)c(CC(=O)O)c(C)n2C(=O)c1ccc(Cl)cc1 [indomethancin]
COX-1 and COX-2
  preference in inhibition of COX-1 and COX-2: preferentially inhibit COX-1

## CCN(CC)CC(=O)Nc1c(C)cccc1C [lidocaine]
Tactile allodynia [3]; 300 μg intraperitoneal, four PSNL rats
  tactile allodynia: no attenuation or reversal of tactile allodynia was observed
Tactile allodynia [3]; 300 μg intrathecal, 1 week after injection
  antiallodynic effect: disappeared
Tactile allodynia [3]; [10]
  effect on the ipsilateral hind paw: antinociceptive effect
  reversal of tactile allodynia: also observed
Tactile allodynia [3]; 300 μg intrathecal, two weeks after PSNL, two hours following injection
  tactile allodynia in both hind paws: significantly reversed
[4]
  behavior: no abnormal behavior
Tactile allodynia [5]; 100 μg intrathecal, four weeks following SNL, two hours and 2 days following injection
  tactile allodynia, ipsilateral hind paw: markedly reversed to the prelesion level
Tactile allodynia [5]; 100 μg intrathecal, three days after injection
  withdrawal threshold in the hind paw: not significantly lower than the prelesion baseline value
Tactile allodynia [5]; 200 μg intrathecal, four weeks following SNL, two hours and 2 days following injection
  tactile allodynia, ipsilateral hind paw: markedly reversed to the prelesion level
Tactile allodynia [5]; 200 μg intrathecal, three days after injection
  tactile allodynia, ipsilateral hind paw: reappeared
Tactile allodynia [5]; 300 μg intrathecal, four weeks following SNL, two hours and 2 days following injection
  tactile allodynia, ipsilateral hind paw: markedly reversed to the prelesion level
Tactile allodynia [5]; 300 μg intrathecal, three days after injection
  tactile allodynia, ipsilateral hind paw: reappeared
[6]; 100 μg intrathecal
  transient weakness or paralysis of both hind limbs, incidence: completely absent
[6]; 200 μg intrathecal
  transient weakness or paralysis of both hind limbs, incidence: one third of rats
[6]; 300 μg intrathecal
  transient weakness or paralysis of both hind limbs, incidence: almost all rats
[6]; intrathecal lidocaine
  duration of transient weakness or paralysis: 10 to 20 min

## CN1CC[C@]23c4c5ccc(O)c4O[C@H]2[C@@H](O)C=C[C@H]3[C@H]1C5 [morphine]
[7]; 1 mg/kg
  ambulatory activity in sham animals: stimulates ambulatory activity
[7]; [11]
  effect of laparotomy on ambulatory activity: blocked; also recorded: reversed
  effect of laparotomy on vertical activity: not vertical counts; also recorded: not vertical activity

## CS(=O)(=O)Nc1ccc([N+](=O)[O-])cc1Oc1ccccc1 [nimesulide]
COX-1 and COX-2
  preference in inhibition of COX-1 and COX-2: preferentially inhibit COX-2

## CN1C(C(=O)Nc2ccccn2)=C(O)c2ccccc2S1(=O)=O [piroxicam]
Tactile allodynia [2]; 4 weeks after PSNL
  well established tactile allodynia in either hindpaw: failed to attenuate

## CS(=O)(=O)c1ccc(C2=C(c3ccccc3)C(=O)OC2)cc1 [rofecoxib]
Nociceptive responses [8]
  reduction of nociceptive responses: no effect
Nociceptive responses [9]
  reduction of nociceptive responses: no effect
